Laboratory results: patent US20250074911A1, “MACROCYCLIC BTK INHIBITORS” (Crossfire Oncology Holding B.V., priority 2021, published 2025)

What was measured:
[1] = system: wt-REC-1 mantle cell lymphoma cells; assay: Cell proliferation assay wt-REC-1 (ATPlite, 72 hours); format: cell-based; conditions: 72 h; read-out: IC50 wt-REC-1
Summary of the method: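 Luminescent viability read over 72 h, start-of-incubation signal recorded separately to separate growth from cell death. Percentage growth referenced to compound-free 0.3% DMSO wells; IC50 from 4-parameter logistic fit.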

[2] = system: wt-BTK, BTK C481S, BTK T474I and BTK C481S/T474I expressing 293 cells; assay: Cell based washout, pBTK (Tyr223) Western blot; set-up: species or system human; conditions: 1000 nM compound 2 hours, washed twice, harvested 0-24 hours; also cell lines expressing mutant BTK
Experimental: In vitro cellular (mutant) BTK inhibition, and inhibitor wash-out Generation of human wt-BTK, BTK C481S, BTK T474I, and BTK C481S/T474I expressing GripTite 293 MSR cells.
GripTite 293 MSR cells (Thermo Fisher, cat. no. R79507), here after referred to as 293 cells, were cultured in DMEM/F-12, GIutaMAX™ supplement medium (Thermo Fisher cat. no. 10565018) supplemented with 1% Penicilline/Streptomycine (Thermo Fisher cat. no. 15140122) 10% fetal bovine serum (Biowest, cat. no. Si181 0-500), 1× MEM Non-Essential Amino Acids (Thermo Fisher cat. no. 11140050) and 50 μg/ml Geneticin (Thermo Fisher cat. no. 10131035). Cells were transfected, with pEF6/V5-HisB (Thermo Fisher cat. no. V96120) expression vectors containing either full-length wildtype-BTK (canonical sequence NM_000061), BTK C481 S, BTK T474I or BTK C481 S/T474I (BaseClear) using Lipofectamine™ 3000 (Invitrogen). Because the stop codon at the end of the coding sequence of BTK has been conserved, the His-tag present in the expression vector is not being used. Immediately after transfection, cells were cultured in medium without Geneticin, and after 24 hours 50 μg/ml geneticin was added. 48 hours after transfection, medium was removed and replaced by medium containing both geneticin (50 μg/ml) and blasticidin (10 μg/ml) S HCl (Thermo Fisher, cat. no. A1113903). The resulting transfectants were cultured under blasticidin selection pressure for 18-35 passages to obtain stable wild-type BTK (wt-BTK), BTK C481S, BTK T474I, and BTK C481 S/T474I expressing cell pools. Stability of the (mutant) BTK expression in the 293 cell pools was confirmed by poly-acrylamide gel electrophoresis followed by Western blotting (FIG. 1A). […] For both experiments 10 μg of protein was separated on 4-12% Bis-Tris polyacrylamide gels.
Wild-type BTK, BTK C481S, BTK T474I or BTK C481 S/T474I expressing 293 cells were lysed in lysis buffer supplemented with protease inhibitors (Merck, cat. no. P8340) and phosphatase inhibitors (Thermo Fisher, cat. no. 78426). The protein concentration was determined with a Pierce BCA protein assay kit (Thermo Fisher, cat. no. 23227). Lysates were diluted to a concentration of 1 μg/μl in NuPage® LDS Sample Buffer (Thermo Fisher, cat. no. NP0008) with 167 mM DTT (Acros Organics, cat. no. 10686841) and denatured for 5 minutes at 95° C. The samples (10 μg protein) were, together with a pre stained protein ladder (Thermo Fisher, cat. no. 26616), separated on 4-12% Bis-Tris polyacrylamide gels (Thermo Fisher, cat. no. NP0324BOX). Separated protein was subsequently transferred, in methanol free transfer buffer (Thermo Fisher, cat. no. 35045), to a nitrocellulose membrane (Thermo Fisher, cat. no. 88018). Blots were first immunologically stained with phospho-BTK (Tyr223) rabbit mAb (Cell Signaling, cat. no. 5082S), and beta-actin rabbit mAb (Cell Signaling, cat. no. 4967S), followed by peroxidase conjugated goat anti-rabbit IgG (Cell Signaling, cat. no. 7074S). Afterwards, antibodies were removed using Western-blot stripping buffer (Thermo Fisher cat. no. 46428) and staining was repeated with a (total-)BTK mouse mAb (Abnova, cat. no. MAB0798), followed by peroxidase conjugated horse anti-mouse IgG (Cell Signaling, cat. no. 7076S). For all blots the colour development was performed with ECL horseradish peroxidase substrate (BioRad, cat. no. 170-5060).
Wild-type BTK, BTK C481S, BTK T474I, and BTK C481 S/T474I expressing 293 cells were growing exponentially when seeded in culture medium, without blasticidin, at a density of 2,000,000 cells/4 ml/well, in 25 cm^2 cell culture flasks (Greiner Bio-one, cat. no. 690175). Flasks were placed in a 37° C. C02-incubator for 16-24 hours after which 1 ml culture medium containing 5000 nM of the compound of Example 46 or Example 201, or Example 184, or Example 204, or Example 45 or (+/−) Loxo-305, or 0.05% DMSO (no compound) was added. 2 hours after addition of the inhibitors (0h) cells are either collected or washed twice with 5 ml culture medium. […]

[3] = system: wt-TMD8 diffuse large B-cell lymphoma cells; assay: Cell proliferation assay wt-TMD8 (ATPlite, 120 hours); format: cell-based; conditions: B-cell; wt-TMD8 cells, 120 hours, ATPlite; read-out: IC50 wt-TMD8
Summary of the method: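 Readout is percentage growth from ATPlite 1Step luminescence after 5 days (120 h) compound treatment of wt-TMD8 lymphoma cells (1600/well, RPMI-1640 + 10% FBS). Time-zero signal separates growth inhibition from cell kill; 0.3% DMSO wells without compound define maximal growth.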

Row | SMILES | IC50 [1] | IC50 [3] | time for which level of phosphorylated BTK (pBTK (Tyr223)) is prohibited or reduced after wash-out [2]
1 | N#Cc1ccnc(NC(=O)c2ccc(-c3nc4n5c(cnc(N)c35)/C=C/CCOCCC(=O)N[C@@H]3CC[C@@H]4C3)cc2)c1 [Example 201] | < 100 nM | < 100 nM | at least 6 hours
2 | N#Cc1ccnc(NC(=O)c2ccc(-c3nc4n5c(cnc(N)c35)/C=C/CCCCCC(=O)N[C@@H]3CCC[C@@H]4C3)cc2)c1 [Example 184] | < 100 nM | < 100 nM | at least 6 hours
3 | Nc1ncc2c3c1c(-c1ccc(C(=O)Nc4cc(C(F)(F)F)ccn4)cc1)nn3[C@@H]1CCC[C@H](C1)NC(=O)CCOC/C=C/2 [Example 25] | < 100 nM | < 100 nM | at least 6 hours

The next lines start with results.

Row | IC50 [1] | IC50 [3] | SMILES | time for which level of phosphorylated BTK (pBTK (Tyr223)) is prohibited or reduced after wash-out [2]
4 | < 100 nM | < 100 nM | C[C@@H]1CC(=O)N[C@@H]2CCC[C@H](C2)n2nc(-c3ccc(C(=O)Nc4cc(C(F)(F)F)ccn4)cc3)c3c(N)ncc(c32)/C=C/CCN1 [Example 45] | at least 6 hours
5 | < 100 nM | < 100 nM | N#Cc1ccnc(NC(=O)c2ccc(-c3nc4n5c(cnc(N)c35)/C=C/CCCCCC(=O)N[C@@H]3CC[C@@H]4C3)cc2)c1 [Example 204] | at least 6 hours
